Results on three compounds are retold here after patent publication US11583217B2, “Neurophysiological data analysis using spatiotemporal parcellation” (Firefly Neuroscience Ltd., priority 2012, dated 2023).

What all share (assay type): in vivo, human
One experiment relates to ADHD subject. Description: BNA pattern similarity from EEG data of ADHD subjects treated with MPH. From the text:
The BNA patterns shown in FIGS. 6A-6D are associated subject-specific BNA patterns constructed from EEG data recorded from a particular ADHD subject. The black dots in FIGS. 6A-6D show the locations of the EEG electrodes. The color codes in these BNA patterns are the same as defined above. The subject-specific BNA patterns shown in FIGS. 6A-6B describe the association of the ADHD subject to a group of untreated ADHD subjects, and the BNA patterns shown in FIGS. 6C-6D describe the association of the ADHD subject to a group of ADHD subjects all treated with methylphenidate (MPH). The subject-specific BNA patterns shown in FIGS. 6A and 6C are based on EEG data recorded from the ADHD subject before any treatment, and subject-specific BNA patterns shown in FIGS. 6B and 6D are based on EEG data recorded from the ADHD subject following a treatment with MPH.
The baseline annotated BNA pattern constructed from the group of untreated ADHD subjects, and the baseline annotated BNA pattern constructed from the same group of subjects, but following treatment with MPH are shown in FIGS. 6E and 6F, respectively.
The calculated similarity corresponding to the BNA pattern of FIG. 6A is 0.73, the calculated similarity corresponding to the BNA pattern of FIG. 6B is 0.19, the calculated similarity corresponding to the BNA pattern of FIG. 6C is 0.56, and the calculated similarity corresponding to the BNA pattern of FIG. 6D is 0.6.
The BNA patterns shown in FIGS. 7A-7D were constructed from EEG data recorded from a different ADHD subject, which was also treated with MPH according to the same protocol as described above with respect to the responder subject of FIGS. 6A-6D. The black dots in FIGS. 7A-7D show the locations of the EEG electrodes, and the color codes in these BNA patterns is the same as defined above. Thus, the subject-specific BNA patterns shown in FIGS. 7A-7B describe the association of the ADHD subject to a group of untreated ADHD subjects, and the BNA patterns shown in FIGS. 7C-7D describe the association of the ADHD subject to a group of ADHD subjects all treated with methylphenidate (MPH). The subject-specific BNA patterns shown in FIGS. 7A and 7C are based on EEG data recorded from the ADHD subject before any treatment, and subject-specific BNA patterns shown in FIGS. 7B and 7D are based on EEG data recorded from the ADHD subject following a treatment with MPH.
The calculated similarity corresponding to the BNA pattern of FIG. 7A is 0, the calculated similarity corresponding to the BNA pattern of FIG. 7B is 0, the calculated similarity corresponding to the BNA pattern of FIG. 7C is 0.06, and the calculated similarity corresponding to the BNA pattern of FIG. 7D is 0.

Another experiment deals with groups of subjects. Nature of the experiment: Group BNA patterns from EEG data during working memory test (cue/probe). Conditions: vs placebo. From the text: FIGS. 10A-10H show group BNA patterns constructed from EEG data recorded from two groups of subjects during a working memory test. The black dots in FIGS. 10A-10H show the locations of the EEG electrodes, and the color codes in these BNA patterns is the same as defined above. During the test, each subject of the group was asked to memorize an image of a human face (referred to as the “cue”). Two seconds later, the subject was again presented with an image of a human face (referred to as the “probe”) and was asked to determine whether the probe matches the cue.
FIGS. 10A and 10B are group BNA patterns constructed following treatment with a placebo (referred to below as placebo A), and FIGS. 10C and 10D are group BNA patterns constructed following treatment with a Scopolamine. The BNA patterns of the second group are shown in FIGS. 10E-10H, where FIGS. 10E and 10F are group BNA patterns constructed following treatment with a placebo (referred to below as placebo B), and FIGS. 10G and 10H are BNA patterns constructed following treatment with a Ketamine.
The BNA pattern of FIGS. 10A, 10C, 10E and 10G were constructed from the data acquired during the time at which the cue was presented and are recognized by the present inventor as containing information pertaining to the memorization process in the brain (also known in the literature as “encoding”). The BNA patterns of FIGS. 10B, 10D, 10F and 10H were constructed from the data acquired during the time at which the probe was presented, and are recognized by the present inventor as containing information pertaining to the retrieval process in the brain. It is noted that the BNA patterns of FIGS. 10A-10H describe differentiating activity networks. Thus, for example, the BNA pattern of FIG. 10A describes the brain activity during […] that most differentiated between placebo A and Scopolamine, and the BNA pattern of FIG. 10B describes the brain activity during […] that most differentiated between placebo B and Ketamine.

In experiment [1] the test system is healthy volunteer subjects. Nature of the experiment: BNA pattern similarity from EEG data of healthy volunteers during attention oddball task, scopolamine vs placebo. From the text: FIGS. 8A-8D show associated subject-specific BNA patterns constructed from EEG data recorded from two healthy volunteer subjects. The black dots in FIGS. 8A-8D show the locations of the EEG electrodes, and the color codes in these BNA patterns are the same as defined above. The subject-specific BNA patterns shown in FIGS. 8A-8D describe the association of the subjects to a group of healthy subjects following treatment with a placebo drug and while performing an attention task related oddball task.
FIGS. 8A and 8C are subject-specific BNA patterns constructed from EEG data collected from a first subject (FIG. 8A) and a second subject (FIG. 8C) following treatment with a placebo, and FIGS. 8B and 8D are subject-specific BNA patterns constructed from EEG data collected from the first subject (FIG. 8B) and the second subject (FIG. 8D) following treatment with a scopolamine drug. Scopolamine is an anticholinergic drug with inhibitory effect on M2-cholinergic receptors of excited type. It has an inhibitory effect on the cerebral cortex, typically inducing slight-anesthetic effect.
(§1) The calculated similarities are 0.937, 0.079, 1.0 and 0.94, respectively. It is recognized by the present inventors that these similarity values indicate that the responsivity to scopolamine is high for the first subject (FIGS. 8A and 8B) and low for the second subject (FIGS. 8C and 8D).

The subject of experiment [2] is healthy volunteer subjects. Nature of the experiment: Clinical observation of behavioral endpoint following scopolamine. To be noted: following treatment with scopolamine.
From the text: as §1

A further experiment deals with healthy volunteers. Description: Scopolamine induced cognitive impairment model, ΔBNA scores in Auditory Oddball Task. Conditions: scopolamine 0.4 mg, Novel stimulus, connectivity score; only 2 patients on placebo. From the text: The task chosen for this study was the Auditory Oddball Task, but other tasks are not excluded from the scope of the present invention. FIG. 21 is a schematic representation of an Auditory Oddball Task used in this study. The task included 600 repetitive 1000 ms auditory stimulations of which 80% were 2000 Hz stimuli (Frequent—blue circles), 10% were 1000 Hz stimuli requiring a motor response (Target—red circles) and 10% were rare non-targets composed of various sounds (Novel—yellow star). The stimuli were separated by 1500 ms intervals. The sound was delivered through a headset at a sound pressure level of 70 dB.
• Repeatability: Within-subject BNA score repeatability was assessed by computing the Intraclass Correlation. • Normality Tests: Normality of ΔBNA distributions was evaluated using the Kolmogorov-Smirnov test of normality (p≥0.200) and validated with corresponding Q-Q plots. • SEM Computation: The change over time in the BNA Scores of a subject/patient from baseline (ΔBNA) is evaluated in terms of standard error of measurements (SEM) against the Normative Database to determine likelihood of true change.
A pharmacological model study included 13 healthy volunteers of both genders, Aged 18-45. […] The second and third sessions were at random order, double blind. ΔBNA Score values (Baseline—Placebo and Baseline—Drug) were evaluated against SEM values. […]

Turning to `COC(=O)C(c1ccccc1)C1CCCCN1` (stereo not drawn) [MPH, methylphenidate], the “responsiveness to treatment inferred from similarity values” in the experiment on ADHD subject (ADHD subject of FIGS. 6A-6D) is “responsive to the treatment”; in the experiment on ADHD subject (ADHD subject of FIGS. 7A-7D) it was “not responsive to the treatment”. Moreover, the “BNA pattern similarity to baseline BNA pattern of untreated ADHD group” value in the experiment with ADHD subject (different ADHD subject, following MPH (FIG. 7B), 0 before treatment) is reported as 0; in the experiment on ADHD subject (responder ADHD subject, following single dose MPH (FIG. 6B), 0.73 before treatment), 0.19. The “BNA pattern similarity to baseline BNA pattern of MPH-treated ADHD group” value in the experiment on ADHD subject (different ADHD subject, following MPH (FIG. 7D), 0.06 before treatment) is recorded as 0; with ADHD subject (responder ADHD subject, following single dose MPH (FIG. 6D), 0.56 before treatment) it was 0.6.
Turning to `CNC1(c2ccccc2Cl)CCCCC1=O` (stereo not drawn) [ketamine], in the experiment on groups of subjects, the “central and frontal activation in the group BNA pattern” value is “increased central and frontal activation”; the “fronto-parietal part of the group BNA pattern” value is given as “No significant change”; the “right lateralization in the group BNA pattern” value is reported as “decreased right lateralization”.
As for `CN1[C@@H]2C[C@@H](OC(=O)[C@H](CO)c3ccccc3)C[C@H]1[C@@H]1O[C@@H]12` [scopolamine], the responsivity to scopolamine entry in experiment [1] (first subject (FIGS. 8A and 8B)) was “high”; in experiment [1] (second subject (FIGS. 8C and 8D)), “low”. Moreover, the “BNA pattern similarity to baseline BNA pattern of placebo-treated healthy group” value in experiment [1] (first subject, following scopolamine (FIG. 8B), 0.937 after placebo) is 0.079; in experiment [1] (second subject, following scopolamine (FIG. 8D), 1.0 after placebo), 0.94. Besides, the “decrease in behavioral endpoint” value in experiment [2] (first subject) turned out to be 70%. Also, the “change in behavioral endpoint” value in experiment [2] (second subject) is reported as “no change”. Also, the “central and frontal activation in the group BNA pattern” value in the experiment on groups of subjects was “extensive compensatory central and frontal activation”. Moreover, the “fronto-parietal part of the group BNA pattern” value in the experiment on groups of subjects is “low connectivity between frontal and parietal regions”. Also, the “patients with post-treatment BNA scores more than 2 SEM lower than the baseline score” value in the experiment on healthy volunteers was “Eight out of 13”.
